From patent US12404250B2, “PARP inhibitors for treating cancer and asthma” (Oregon Health & Science University, priority 2018, dated 2025) come the findings set out here.

The target in one assay is PARP 1 (Homo sapiens, UniProt P09874). Briefly: In vitro IC50, PARP1. To be noted: SEM from a minimum of three dose-response experiments. Type of assay: biochemical.
The target in the next assay is PARP 2 (Homo sapiens, UniProt Q9UGN5). The assay can be described thus: In vitro IC50, PARP2. In kind it is biochemical. As to conditions: SEM from a minimum of three dose-response experiments.
PARP 2, sequence (Q9UGN5 whole entry): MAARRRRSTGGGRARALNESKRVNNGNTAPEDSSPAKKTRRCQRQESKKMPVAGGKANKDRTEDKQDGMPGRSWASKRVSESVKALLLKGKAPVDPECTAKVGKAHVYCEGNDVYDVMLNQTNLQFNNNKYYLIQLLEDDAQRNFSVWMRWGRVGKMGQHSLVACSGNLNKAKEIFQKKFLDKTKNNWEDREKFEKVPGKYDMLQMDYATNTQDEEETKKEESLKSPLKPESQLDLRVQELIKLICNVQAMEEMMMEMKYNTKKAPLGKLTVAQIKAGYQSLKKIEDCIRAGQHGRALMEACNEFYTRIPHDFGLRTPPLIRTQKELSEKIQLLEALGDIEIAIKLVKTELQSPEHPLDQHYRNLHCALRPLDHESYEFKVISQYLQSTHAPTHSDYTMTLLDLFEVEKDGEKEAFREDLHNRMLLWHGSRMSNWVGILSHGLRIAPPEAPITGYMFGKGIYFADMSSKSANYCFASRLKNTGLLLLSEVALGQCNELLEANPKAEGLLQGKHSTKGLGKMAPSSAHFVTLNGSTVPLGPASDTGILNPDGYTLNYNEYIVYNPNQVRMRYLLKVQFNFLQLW
The target in a further assay is T1, PARP 3 (Homo sapiens, UniProt Q9Y6F1).
T1 sequence (Q9Y6F1 1-533): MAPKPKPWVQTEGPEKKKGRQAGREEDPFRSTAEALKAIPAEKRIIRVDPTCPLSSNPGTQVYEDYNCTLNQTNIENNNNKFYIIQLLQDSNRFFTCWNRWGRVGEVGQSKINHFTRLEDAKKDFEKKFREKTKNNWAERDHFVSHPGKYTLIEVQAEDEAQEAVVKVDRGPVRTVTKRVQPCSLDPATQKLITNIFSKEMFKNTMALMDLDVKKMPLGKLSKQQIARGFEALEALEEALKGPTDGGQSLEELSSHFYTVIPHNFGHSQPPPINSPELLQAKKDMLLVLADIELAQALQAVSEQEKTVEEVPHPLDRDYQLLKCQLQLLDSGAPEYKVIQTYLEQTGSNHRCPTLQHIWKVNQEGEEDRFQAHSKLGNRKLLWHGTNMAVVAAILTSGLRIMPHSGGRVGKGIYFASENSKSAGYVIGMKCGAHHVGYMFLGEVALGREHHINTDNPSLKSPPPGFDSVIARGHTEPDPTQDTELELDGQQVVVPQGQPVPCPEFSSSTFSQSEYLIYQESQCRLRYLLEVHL
The assay can be described thus: In vitro IC50, PARP3. Type of assay: biochemical. As to conditions: SEM from a minimum of three dose-response experiments.

In a further assay the target is T2, PARP5 bcat (Homo sapiens, UniProt Q9H2K2).
T2 construct: bcat
T2 sequence (Q9H2K2 959-1164): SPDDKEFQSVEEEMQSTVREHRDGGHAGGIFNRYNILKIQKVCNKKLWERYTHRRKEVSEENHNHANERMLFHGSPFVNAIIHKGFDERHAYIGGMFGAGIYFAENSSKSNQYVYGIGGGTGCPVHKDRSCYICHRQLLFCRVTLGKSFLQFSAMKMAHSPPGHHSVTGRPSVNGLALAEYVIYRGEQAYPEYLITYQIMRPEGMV
The assay can be described thus: In vitro IC50, PARP5bcat. As to conditions: SEM from a minimum of three dose-response experiments. Type of assay: biochemical.

The next assay deals with T3, PARP10cat (Homo sapiens, UniProt Q53GL7).
T3 construct: bcat; cat; PARP11
T3 sequence (Q53GL7 806-1025 limits assumed): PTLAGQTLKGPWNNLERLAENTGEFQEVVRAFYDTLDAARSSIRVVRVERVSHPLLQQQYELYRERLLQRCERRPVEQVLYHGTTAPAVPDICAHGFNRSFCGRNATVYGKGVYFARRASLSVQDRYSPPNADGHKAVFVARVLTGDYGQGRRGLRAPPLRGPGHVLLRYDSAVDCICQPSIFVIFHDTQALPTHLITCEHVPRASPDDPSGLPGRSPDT
Briefly: In vitro IC50, PARP10cat. In kind it is biochemical. To be noted: SEM from a minimum of three dose-response experiments.

The target in a further assay is T4, PARP11 (Homo sapiens, UniProt Q9NR21).
T4 sequence (Q9NR21 1-338): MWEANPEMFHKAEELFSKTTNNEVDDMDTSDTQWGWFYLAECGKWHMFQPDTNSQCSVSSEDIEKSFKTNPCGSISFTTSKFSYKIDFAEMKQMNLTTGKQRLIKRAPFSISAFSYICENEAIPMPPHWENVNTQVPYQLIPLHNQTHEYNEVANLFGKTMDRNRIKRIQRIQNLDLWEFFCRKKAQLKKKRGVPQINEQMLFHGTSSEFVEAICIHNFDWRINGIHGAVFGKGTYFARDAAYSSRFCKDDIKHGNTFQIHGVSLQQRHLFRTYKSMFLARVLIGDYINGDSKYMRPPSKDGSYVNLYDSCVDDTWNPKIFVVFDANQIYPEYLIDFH
Briefly: In vitro IC50, PARP11 (plate assay, MARylation of SRPK2 and NXF1). In kind it is biochemical. To be noted: SEM from a minimum of three dose-response experiments. The text has this:
Curves generated using Prism 7 (Graph Pad); error bars indicate ±SEM from at least two replicates.

The target in the next assay is T5, PARP14 cat-wwe (Homo sapiens, UniProt Q460N5).
T5 construct: PARP14 cat-wwe; no borders given for the assay protein
T5 sequence (Q460N5 1523-1801 limits assumed): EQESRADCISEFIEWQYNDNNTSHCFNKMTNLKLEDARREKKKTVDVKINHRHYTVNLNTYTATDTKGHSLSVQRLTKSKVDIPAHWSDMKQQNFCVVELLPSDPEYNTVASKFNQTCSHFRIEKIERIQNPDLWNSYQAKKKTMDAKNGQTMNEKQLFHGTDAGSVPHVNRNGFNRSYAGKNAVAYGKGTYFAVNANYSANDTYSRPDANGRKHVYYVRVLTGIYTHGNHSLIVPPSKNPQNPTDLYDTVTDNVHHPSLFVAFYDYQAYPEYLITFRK
Briefly: In vitro IC50, PARP14 cat-wwe. Type of assay: biochemical. To be noted: SEM from a minimum of three dose-response experiments.

The target in the next assay is T6, PARP15 cat (Homo sapiens, UniProt Q460N3).
T6 construct: cat-wwe; cat
T6 sequence (Q460N3 482-678 limits assumed): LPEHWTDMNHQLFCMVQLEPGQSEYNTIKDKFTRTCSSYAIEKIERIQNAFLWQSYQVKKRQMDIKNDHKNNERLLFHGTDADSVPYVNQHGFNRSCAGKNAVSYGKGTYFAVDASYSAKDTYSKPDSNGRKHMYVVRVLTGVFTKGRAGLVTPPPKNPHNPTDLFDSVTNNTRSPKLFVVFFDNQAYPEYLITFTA
Briefly: In vitro IC50, PARP15 cat. In kind it is biochemical. To be noted: SEM from a minimum of three dose-response experiments.

The target in a further assay is T7, PARP1/2 (Homo sapiens, UniProt P09874).
T7 construct: expressed in transfected cells; host or cells: HEK 293T
T7 sequence (P09874 2-1014): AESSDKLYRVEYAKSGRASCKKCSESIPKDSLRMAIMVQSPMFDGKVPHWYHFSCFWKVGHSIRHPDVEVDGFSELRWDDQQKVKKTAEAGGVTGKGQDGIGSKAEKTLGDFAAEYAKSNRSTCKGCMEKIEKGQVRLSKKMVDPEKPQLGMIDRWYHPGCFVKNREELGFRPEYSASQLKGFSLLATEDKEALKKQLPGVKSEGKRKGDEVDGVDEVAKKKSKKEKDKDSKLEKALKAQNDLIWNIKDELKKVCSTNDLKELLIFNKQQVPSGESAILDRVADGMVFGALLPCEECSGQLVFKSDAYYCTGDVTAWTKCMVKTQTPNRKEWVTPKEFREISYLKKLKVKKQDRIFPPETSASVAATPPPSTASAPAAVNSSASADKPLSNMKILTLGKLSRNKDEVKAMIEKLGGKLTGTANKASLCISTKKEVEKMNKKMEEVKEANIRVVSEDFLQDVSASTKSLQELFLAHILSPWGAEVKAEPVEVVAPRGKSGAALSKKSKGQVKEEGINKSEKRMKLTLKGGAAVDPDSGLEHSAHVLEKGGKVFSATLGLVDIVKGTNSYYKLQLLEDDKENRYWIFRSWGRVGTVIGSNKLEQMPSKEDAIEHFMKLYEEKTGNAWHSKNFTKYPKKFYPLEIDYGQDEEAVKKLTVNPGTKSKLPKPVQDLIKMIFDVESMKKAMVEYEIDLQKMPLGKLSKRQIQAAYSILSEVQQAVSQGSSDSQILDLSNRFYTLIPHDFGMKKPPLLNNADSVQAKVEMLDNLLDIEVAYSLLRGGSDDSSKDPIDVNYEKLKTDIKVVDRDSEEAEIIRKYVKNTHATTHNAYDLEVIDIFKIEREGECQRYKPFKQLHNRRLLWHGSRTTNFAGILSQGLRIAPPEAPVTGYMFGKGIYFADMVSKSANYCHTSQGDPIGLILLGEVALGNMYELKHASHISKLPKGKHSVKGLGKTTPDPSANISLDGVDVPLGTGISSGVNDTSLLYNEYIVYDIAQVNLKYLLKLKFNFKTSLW
The assay can be described thus: H2O2-stimulated PARP1/2 activity in HEK 293T cells (Western blot). Type of assay: cell-based. As to conditions: H2O2 500 μM for 15 min, Western blot with ADPr binding reagent.

PARP 1, sequence (P09874 whole entry): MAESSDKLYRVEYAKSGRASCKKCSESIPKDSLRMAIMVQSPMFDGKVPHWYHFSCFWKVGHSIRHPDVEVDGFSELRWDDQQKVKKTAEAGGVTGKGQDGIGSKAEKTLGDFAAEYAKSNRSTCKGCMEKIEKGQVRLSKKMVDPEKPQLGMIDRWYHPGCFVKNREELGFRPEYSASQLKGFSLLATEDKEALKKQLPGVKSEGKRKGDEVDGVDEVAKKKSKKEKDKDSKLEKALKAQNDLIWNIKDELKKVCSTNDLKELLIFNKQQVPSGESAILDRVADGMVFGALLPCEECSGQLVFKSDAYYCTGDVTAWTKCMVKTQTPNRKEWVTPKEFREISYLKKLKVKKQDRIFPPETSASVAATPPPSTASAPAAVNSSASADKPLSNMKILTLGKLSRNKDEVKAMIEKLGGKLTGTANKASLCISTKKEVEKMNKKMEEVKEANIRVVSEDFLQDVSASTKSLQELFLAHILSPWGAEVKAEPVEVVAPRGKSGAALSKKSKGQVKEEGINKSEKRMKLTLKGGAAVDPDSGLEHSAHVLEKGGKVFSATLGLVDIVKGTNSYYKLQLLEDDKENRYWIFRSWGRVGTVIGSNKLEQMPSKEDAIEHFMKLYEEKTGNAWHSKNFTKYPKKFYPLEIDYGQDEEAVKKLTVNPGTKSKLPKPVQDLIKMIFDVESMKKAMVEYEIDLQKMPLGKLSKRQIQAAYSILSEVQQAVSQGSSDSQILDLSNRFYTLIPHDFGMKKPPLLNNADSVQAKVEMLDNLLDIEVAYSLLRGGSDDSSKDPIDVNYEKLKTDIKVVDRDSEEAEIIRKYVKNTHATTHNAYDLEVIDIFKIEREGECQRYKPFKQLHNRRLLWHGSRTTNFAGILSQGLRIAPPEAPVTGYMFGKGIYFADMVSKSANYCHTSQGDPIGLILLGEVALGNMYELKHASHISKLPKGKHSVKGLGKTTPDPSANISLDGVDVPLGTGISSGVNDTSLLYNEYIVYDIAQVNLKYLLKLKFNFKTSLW
Experimental for PARP1/2: Lysates were prepared and PAR/MARylation was analyzed by Western blot with an ADP-ribose (ADPr) binding reagent. Blot was also probed with antibodies for GFP and actin. The band of interest represents auto-PARylated GFP-PARP1. […] Lysates were prepared and PAR/MARylation was analyzed by Western blot with an ADP-ribose (ADPr) binding reagent. Blot was also probed with antibodies for GFP and actin.
Lysates were prepared and PAR/MARylation was analyzed by Western blot with an ADP-ribose (ADPr) binding reagent. Blot was also probed with antibodies for GFP and actin. The band of interest represents auto-PARylated GFP-PARP1.

In the case of `Cc1ccc2c(=O)[nH]c(CSc3ncccn3)nc2c1C` [ITK1, 7,8-dimethyl-2-((pyrimidin-2-ylthio)methyl)quinazolin-4(3H)-one], the IC50 (as a rule, the concentration that gives 50% inhibition) is > 30 µM against PARP 1; 17.4 ± 3.3 µM against PARP 2; > 30 µM against PARP 3; > 10 µM at PARP5 bcat; 19.7 ± 0.95 µM at PARP10cat; 0.55 ± 0.11 µM against PARP11. The IC50 at PARP14 cat-wwe is 8.55 ± 0.8 µM; against PARP15 cat, > 30 µM.

`Cc1ccc2c(=O)[nH]c(CSc3ncnc4nc[nH]c34)nc2c1C` [ITK2, 2-(((7H-purin-6-yl)thio)methyl)-7,8-dimethylquinazolin-4(3H)-one]: the IC50 was > 30 µM on PARP 1; > 30 µM against PARP 2; > 30 µM on PARP 3; > 10 µM against PARP5 bcat; 32.8 ± 3.6 µM against PARP10cat; 4.52 ± 1.4 µM against PARP11. The IC50 is 7.87 ± 0.2 µM on PARP14 cat-wwe and > 30 µM on PARP15 cat.

For `Cc1ccc2c(=O)[nH]c(CSc3nnc(N)[nH]3)nc2c1C` [ITK3, 2-(((5-amino-4H-1,2,4-triazol-3-yl)thio)methyl)-7,8-dimethylquinazolin-4(3H)-one], the IC50 at PARP 1 was > 30 µM; against PARP 2 it was > 30 µM; at PARP 3 it was > 30 µM; against PARP5 bcat, > 10 µM; against PARP10cat, 27.9 ± 3.9 µM; against PARP11, 13.6 ± 1.4 µM. Moreover, the results for the IC50 against PARP14 cat-wwe and on PARP15 cat were 6.73 ± 1.8 µM and > 30 µM, respectively.

For `Cc1ccc2c(=O)[nH]c(CSc3ccc(C(=O)O)cc3)nc2c1C` [ITK4, 4-(((7,8-dimethyl-4-oxo-3,4-dihydroquinazolin-2-yl)methyl)thio)benzoic acid], the IC50 on PARP 1 is > 30 µM; against PARP 2 it was 8.46 ± 1.4 µM; against PARP 3 it was > 30 µM; against PARP5 bcat, > 10 µM; at PARP10cat, 9.29 ± 0.2 µM; against PARP11 it was 5.5 ± 0.8 µM. The IC50 at PARP14 cat-wwe worked out at 8.71 ± 0.8 µM; at PARP15 cat it was 6.85 ± 0.99 µM.

For `C#Cc1ccc2c(=O)[nH]c(CSc3ccc(C(=O)O)cc3)nc2c1C` [ITK5, 4-(((7-ethynyl-8-methyl-4-oxo-3,4-dihydroquinazolin-2-yl)methyl)thio)benzoic acid], the IC50 against PARP 1 is > 30 µM; against PARP 2 it was > 30 µM; against PARP 3 it was > 30 µM; at PARP5 bcat it was > 10 µM; on PARP10cat, 5.4 ± 0.17 µM; against PARP11, 1.62 ± 0.33 µM. Further, the IC50 against PARP14 cat-wwe stood at 10.8 ± 0.75 µM; against PARP15 cat, 4.03 ± 0.77 µM.

On PARP11, `CNCc1ccc(-c2[nH]c3cc(F)cc4c3c2CCNC4=O)cc1` [Rucaparib, reference compound] yielded an IC50 of 3.4 ± 0.5 µM.

With `C[C@]1(c2nc3c(C(N)=O)cccc3[nH]2)CCCN1` [veliparib, reference compound], the “Inhibition of H2O2-mediated PARP1 PARylation (PARP½ activity) in cells” value on PARP1/2 was “completely inhibits”.
